Data published in patent publication US10336732B2, “1-heterocyclyl isochromanyl compounds and analogs for treating CNS disorders” (Sunovion Pharmaceuticals Inc., priority 2015, dated 2019).

Test system: mice
Assay: Neuropharmacological assay (SmartCube), behavioral signature of compound-treated mice
Format: in vivo
Details: i.p. 15 min before behavioral test, most efficacious dose(s) of 3 doses
Description: Neurosci. […] As reported in Roberds, because psychiatric diseases generally result from disorders of cell-cell communication or circuitry, intact systems are useful in detecting improvement in disease-relevant endpoints. These endpoints are typically behavioral in nature, often requiring human observation and interpretation. To facilitate testing of multiple compounds for behavioral effects relevant to psychiatric disease, PsychoGenics, Inc. (Tarrytown, N.Y., “PGI”) developed SmartCube™, an automated system in which behaviors of compound-treated mice are captured by digital video and analyzed with computer algorithms. […] PGI Analytical Systems uses data from SmartCube™ to compare the behavioral signature of a test compound to a database of behavioral signatures obtained using a large set of diverse reference compounds. (The composition of the database as well as validation of the method is further described in Roberds). In this way, the neuropharmacological effects of a test compound can be predicted by similarity to major classes of compounds, such as antipsychotics, anxiolytics and antidepressants.
The SmartCube™ system produces an activity signature indicating the probability that the activity of the test compound at the administered dose matches a given class of neuropharmacological agents. (See, e.g., Roberds, FIGS. 2 and 3). The test compound is simultaneously compared against multiple classes of agents; thus, a separate probability is generated for each behavioral effect measured (e.g., anxiolytic activity, analgesic activity, etc.). In Table 4, these probabilities are reported for each behavioral effect measured as follows:
Provided compounds were dissolved in a mixture of Pharmasolve™ (N-methyl-2-pyrrolidone), polyethylene glycol and propylene glycol, and were injected i.p. 15 min. before the behavioral test. For each compound, injections were administered at 3 different doses. For each behavioral effect measured, results for the most efficacious dose(s) are presented.

Structure (SMILES)	AD: ADHD (probability that behavioral signature matches class)	AG: analgesic (probability that behavioral signature matches class)	AX: anxiolytic (probability that behavioral signature matches class)	CE: cognitive enhancer (probability that behavioral signature matches class)	DP: anti-depressant (probability that behavioral signature matches class)	HA: hallucinogen (probability that behavioral signature matches class)	MS: mood stabilizer (probability that behavioral signature matches class)	PS: anti-psychotic (probability that behavioral signature matches class)	SD: sedative hypnotic (probability that behavioral signature matches class)	UN: uncharacterized CNS activity (probability that behavioral signature matches class)
N#Cc1ccc2c(c1)CCO[C@H]2[C@@H]1CCCN1 [Compound I-44, (R)-1-((S)-pyrrolidin-2-yl)isochroman-6-carbonitrile]	+ (LOQ ≤ + <5%)	++ (5% ≤ ++ <25%)	+++ (25% ≤ +++ <50%)	++ (5% ≤ ++ <25%)	++ (5% ≤ ++ <25%)	+ (LOQ ≤ + <5%)	++ (5% ≤ ++ <25%)	+++ (25% ≤ +++ <50%)	+ (LOQ ≤ + <5%)	+ (LOQ ≤ + <5%)
Clc1ccc2c(c1)CCO[C@@H]2[C@H]1CCCN1 [Compound I-36, (R)-2-((S)-6-chloroisochroman-1-yl)pyrrolidine]	+ (LOQ ≤ + <5%)	++ (5% ≤ ++ <25%)	++ (5% ≤ ++ <25%)	++ (5% ≤ ++ <25%)	++ (5% ≤ ++ <25%)	+ (LOQ ≤ + <5%)	++ (5% ≤ ++ <25%)	+++ (25% ≤ +++ <50%)	+ (LOQ ≤ + <5%)	++ (5% ≤ ++ <25%)
COc1cccc2c1[C@H]([C@@H]1CCCN1)OCC2 [Compound I-47, (S)-2-((R)-8-methoxyisochroman-1-yl)pyrrolidine]	+ (LOQ ≤ + <5%)	+ (LOQ ≤ + <5%)	++ (5% ≤ ++ <25%)	+ (LOQ ≤ + <5%)	+ (LOQ ≤ + <5%)	+ (LOQ ≤ + <5%)	+ (LOQ ≤ + <5%)	+ (LOQ ≤ + <5%)	+ (LOQ ≤ + <5%)	+ (LOQ ≤ + <5%)
FC1(F)CO[C@H]([C@@H]2CCCN2)c2ccccc21 [Compound I-139, (S)-2-((S)-4,4-difluoroisochroman-1-yl)pyrrolidine]	+ (LOQ ≤ + <5%)	+ (LOQ ≤ + <5%)	++ (5% ≤ ++ <25%)	++ (5% ≤ ++ <25%)	++ (5% ≤ ++ <25%)	+ (LOQ ≤ + <5%)	+ (LOQ ≤ + <5%)	+++ (25% ≤ +++ <50%)	+ (LOQ ≤ + <5%)	+ (LOQ ≤ + <5%)
CC1(C)CN[C@@H]([C@H]2OCCc3ccccc32)C1 [Compound I-62, (R)-2-((S)-isochroman-1-yl)-4,4-dimethylpyrrolidine]	+ (LOQ ≤ + <5%)	++ (5% ≤ ++ <25%)	++ (5% ≤ ++ <25%)	+++ (25% ≤ +++ <50%)	++ (5% ≤ ++ <25%)	+ (LOQ ≤ + <5%)	+ (LOQ ≤ + <5%)	++ (5% ≤ ++ <25%)	+ (LOQ ≤ + <5%)	+ (LOQ ≤ + <5%)
Fc1ccc2c(c1)CCO[C@@H]2[C@H]1CCCN1 [Compound I-11, (R)-2-((S)-6-fluoroisochroman-1-yl)pyrrolidine]	+ (LOQ ≤ + <5%)	++ (5% ≤ ++ <25%)	++ (5% ≤ ++ <25%)	++ (5% ≤ ++ <25%)	++ (5% ≤ ++ <25%)	+ (LOQ ≤ + <5%)	+ (LOQ ≤ + <5%)	+++ (25% ≤ +++ <50%)	+ (LOQ ≤ + <5%)	++ (5% ≤ ++ <25%)
Fc1ccc2c(c1)CCO[C@@H]2[C@@H]1CCN1 [Compound I-89, (S)-2-((S)-6-fluoroisochroman-1-yl)azetidine]	++ (5% ≤ ++ <25%)	++ (5% ≤ ++ <25%)	++ (5% ≤ ++ <25%)	++ (5% ≤ ++ <25%)	+++ (25% ≤ +++ <50%)	+ (LOQ ≤ + <5%)	++ (5% ≤ ++ <25%)	+++ (25% ≤ +++ <50%)	+ (LOQ ≤ + <5%)	+ (LOQ ≤ + <5%)
CC1(C)CN[C@@H]([C@@H]2OCCc3ccccc32)C1 [Compound I-61, (R)-2-((R)-isochroman-1-yl)-4,4-dimethylpyrrolidine]	+ (LOQ ≤ + <5%)	+++ (25% ≤ +++ <50%)	++ (5% ≤ ++ <25%)	+ (LOQ ≤ + <5%)	++ (5% ≤ ++ <25%)	+ (LOQ ≤ + <5%)	++ (5% ≤ ++ <25%)	++ (5% ≤ ++ <25%)	+ (LOQ ≤ + <5%)	+ (LOQ ≤ + <5%)
Clc1ccc2c(c1)[C@@H]([C@H]1CCCN1)OCC2 [Compound I-32, (R)-2-((S)-7-chloroisochroman-1-yl)pyrrolidine]	+ (LOQ ≤ + <5%)	+++ (25% ≤ +++ <50%)	++ (5% ≤ ++ <25%)	++ (5% ≤ ++ <25%)	++ (5% ≤ ++ <25%)	+ (LOQ ≤ + <5%)	+ (LOQ ≤ + <5%)	+++ (25% ≤ +++ <50%)	++ (5% ≤ ++ <25%)	+ (LOQ ≤ + <5%)
Fc1ccc2c(c1)[C@@H](F)CO[C@H]2[C@@H]1CCCN1 [Compound I-138, (S)-2-((1R,4R)-4,6-difluoroisochroman-1-yl)pyrrolidine]	+ (LOQ ≤ + <5%)	+ (LOQ ≤ + <5%)	++ (5% ≤ ++ <25%)	+ (LOQ ≤ + <5%)	++ (5% ≤ ++ <25%)	+ (LOQ ≤ + <5%)	+ (LOQ ≤ + <5%)	+++ (25% ≤ +++ <50%)	+ (LOQ ≤ + <5%)	++ (5% ≤ ++ <25%)

Same assay, conditions: i.p. 15 min before behavioral test, most efficacious dose(s) of 3 doses

Structure (SMILES)	XG: anxiogenic (probability that behavioral signature matches class)
N#Cc1ccc2c(c1)CCO[C@H]2[C@@H]1CCCN1 [Compound I-44, (R)-1-((S)-pyrrolidin-2-yl)isochroman-6-carbonitrile]	+ (LOQ ≤ + <5%)
Clc1ccc2c(c1)CCO[C@@H]2[C@H]1CCCN1 [Compound I-36, (R)-2-((S)-6-chloroisochroman-1-yl)pyrrolidine]	+ (LOQ ≤ + <5%)
COc1cccc2c1[C@H]([C@@H]1CCCN1)OCC2 [Compound I-47, (S)-2-((R)-8-methoxyisochroman-1-yl)pyrrolidine]	+ (LOQ ≤ + <5%)
FC1(F)CO[C@H]([C@@H]2CCCN2)c2ccccc21 [Compound I-139, (S)-2-((S)-4,4-difluoroisochroman-1-yl)pyrrolidine]	+ (LOQ ≤ + <5%)
CC1(C)CN[C@@H]([C@H]2OCCc3ccccc32)C1 [Compound I-62, (R)-2-((S)-isochroman-1-yl)-4,4-dimethylpyrrolidine]	+ (LOQ ≤ + <5%)
Fc1ccc2c(c1)CCO[C@@H]2[C@H]1CCCN1 [Compound I-11, (R)-2-((S)-6-fluoroisochroman-1-yl)pyrrolidine]	+ (LOQ ≤ + <5%)
Fc1ccc2c(c1)CCO[C@@H]2[C@@H]1CCN1 [Compound I-89, (S)-2-((S)-6-fluoroisochroman-1-yl)azetidine]	+ (LOQ ≤ + <5%)
CC1(C)CN[C@@H]([C@@H]2OCCc3ccccc32)C1 [Compound I-61, (R)-2-((R)-isochroman-1-yl)-4,4-dimethylpyrrolidine]	++ (5% ≤ ++ <25%)
Clc1ccc2c(c1)[C@@H]([C@H]1CCCN1)OCC2 [Compound I-32, (R)-2-((S)-7-chloroisochroman-1-yl)pyrrolidine]	+ (LOQ ≤ + <5%)
Fc1ccc2c(c1)[C@@H](F)CO[C@H]2[C@@H]1CCCN1 [Compound I-138, (S)-2-((1R,4R)-4,6-difluoroisochroman-1-yl)pyrrolidine]	+ (LOQ ≤ + <5%)
